Measurements reported in patent US11504414B2, “Bacterial inhibitors” (priority 2016, dated 2022).
Where no end group is shown, it is not given here.

Legend:
HOKs [1] = experiment: LDH cytotoxicity assay; assay type: cell-based, human; settings: P4 as high as 200 μM, 48 h
Protocol: (§1) To examine the cytotoxic effects of P4, plasma membrane damage of HOKs was determined by the Pierce LDH Cytotoxicity Assay Kit. HOKs were seeded into a 6-well plate at a density of 1×10^5/well and cultured in Oral Keratinocyte Medium supplemented with antibiotics (100 U/mL penicillin and 100 μg/mL streptomycin) and 10% fetal calf serum at 37° C. in a humidified chamber with 5% CO2 for 24 h. The cells were then incubated with the growth medium supplemented with P4 (50 or 200 μM) for 48 h. The growth medium was collected for an LDH cytotoxicity assay according to the manufacturer's instructions (Thermo Scientific). To measure the effect of P4 on HOK apoptosis, HOKs were harvested and stained with Annexin V-FITC Apoptosis Kit (Invitrogen), which is able to stain both apoptotic cells and dead cells. Flow cytometric analysis was performed to quantitate apoptotic cells and dead cells (annexin V+/PI+).

HOKs [2] = experiment: Annexin V-FITC apoptosis assay (flow cytometry); assay type: cell-based, human; settings: P4 as high as 200 μM, 48 h
Protocol: as §1

[3] = P4 stability in H2O and PBS (LC-MS/MS); assay type: physicochemical
Protocol: Non-proteinogenic amino acids may improve peptide stability.
(§2) To determine P4 stability in solution, P4 was incubated in H2O, PBS, and whole saliva at 37° C. for 24 h. P4 in each sample was compared using LC-MS/MS analysis. Briefly, 2 μM P4 was injected on C18 nano-clumn and run with 5-20% of 0.1% FA in acetonitrile for 30 min. MS spectra were acquired in a positive mode on Orbitrap LTQ XL (Thermo).

[4] = P4 stability in whole saliva (LC-MS/MS); assay type: in vitro ADME
Protocol: as §2

[5] = buffer (PBS) and TBS (growth medium of P. gingivalis)
[6] = P4 stability in whole saliva (LC-MS/MS); assay type: in vitro ADME; remark: listed apart in the source
P. gingivalis 33277 = experiment: Immunofluorescence/confocal assay of ArcA binding to bacteria; set-up: species or system Porphyromonas gingivalis; settings: purified ArcA 50 μg, 10^8 cells
Protocol: The upper panel presents differential interference contrast (DIC) images showing the location of the bacteria. The red images in the lower panel are the TRITC fluorescence labeling images representing S. cristatus ArcA bound to P. gingivalis 33277 or A. actinomycetemcomitans Y4 that are positively labeled by ArcA specific antibody.
Confocal microscopy. ArcA (50 μg) was purified from S. cristatus CC5A as described (Teles R, Teles F, Frias-Lopez J, Paster B, Haffajee A. 2013. Lessons learned and unlearned in periodontal microbiology. Periodontal 2000 62: 95-162), mixed with P. gingivalis cells (10^8) in PBS and incubated at room temperature for 1 h. After washing three times with PBS, bacteria-protein complexes were blocked in PBS with 5% BSA for 1 h. ArcA bound to P. gingivalis was detected by staining with rabbit anti-ArcA polyclonal antibody (1:400) and tetramethyl rhodamine isothiocyanate (TRITC, 1:500)-conjugated AffiniPure Goat Anti-Rabbit IgG antibody. Visualization was with a LSM 510 inverted confocal microscope with selected filters (543 nm excitation and 560 nm emission).

[7] = test system: P. gingivalis RagB (PGN_0294) and MotA/ToIQ/ExbB proton channel family protein (PGN_0806); experiment: Pull-down assay of ArcA-interacting surface proteins; assay type: binding, Porphyromonas gingivalis; settings: MS identification
Protocol: Pull-down assays. To isolate and identify P. gingivalis surface molecule(s) that interacts with ArcA, we performed a pull-down assay. Surface extracts of P. gingivalis were prepared by sonication with a Sonic Dismembrator (Fisher Scientific; output control 8, 20 s×3), and the cell debris were removed by centrifugation followed by filtration (0.2-μm pore size). Surface extracts of 33277 were mixed with purified ArcA on a rotator at room temperature for 1 h, and then added to an ArcA antibody coupled Sepharose 4B column (Sigma-Aldrich). After incubation at room temperature for 1 h, the column was washed three times with PBS containing 0.01% Tween, and proteins were eluted by 0.1 M Glycine pH 2.4. After SDS-PAGE, bands were excised and identified by liquid chromatography-mass spectrometry.

P. gingivalis = experiment: Effect of ArcA domains on fimA expression; assay type: cell-based, Porphyromonas gingivalis; settings: domain of ArcA as a whole
[8] = Arginine deiminase activity of ArcA domain; assay type: biochemical

NIFKKNVGFKK [P4, NIFKKNVGFKK]
cell membrane damage of HOKs (LDH) (HOKs [1]): did not induce
apoptosis of HOKs (annexin V/PI) (HOKs [2]): did not induce
stability at 37° C. ([3]; 37° C. for 24 h, initial study): stable
stability in H2O and PBS ([3]; 24 h incubation, 37° C.): not affected
time P4 can maintain in saliva at certain level ([4]; 37° C.): at least 24 h
signal in diluted whole saliva ([4]; PBS:saliva 1:1, 0, 0.5, 1, 2, 4 and 24 h): gradual reduction
Signal Intensity of 331.45 m/z peak ([4]; Saliva (PBS:saliva 1:1), 0 hour): 3.9 × 10^6 ± 3.1 × 10^5
Signal Intensity of 331.45 m/z peak ([4]; Saliva, 0.5 hour, 37° C.): 3.6 × 10^6 ± 4.0 × 10^5
Signal Intensity of 331.45 m/z peak ([4]; Saliva, 1 hour, 37° C.): 2.4 × 10^6 ± 2.2 × 10^5
Signal Intensity of 331.45 m/z peak ([4]; Saliva, 2 hour, 37° C.): 1.7 × 10^6 ± 4.2 × 10^5
Signal Intensity of 331.45 m/z peak ([4]; Saliva, 4 hour, 37° C.): 8.8 × 10^5 ± 2.7 × 10^4
Signal Intensity of 331.45 m/z peak ([4]; Saliva, 24 hour, 37° C.): 4.2 × 10^5 ± 3.9 × 10^4
solubility [5]: can be dissolved
Signal Intensity of 331.45 m/z peak ([6]; Saliva, 48 hour, 37° C.): 6.0 × 10^3 ± 4.1 × 10^2
signal in diluted whole saliva ([6]; after 48 h): completely diP4eared

arginine deiminase [ArcA]
affinity of ArcA for bacterial cells (P. gingivalis 33277): high affinity
interaction with P. gingivalis surface proteins PGN_0294 and PGN_0806 [7]: found to interact

B1: C-terminal domain: C-terminal domain of S. cristatus arginine deiminase, 208 amino acid portion (protein, listed as Streptococcus cristatus)
chain: VYNREEDTRIEGGDELVLSKDVLAVGISQRTDAASIEKLLVNIFKKNVGFKKVLAFEFANNRKFMHLDTVFTMVDYDKFTIHPEIEGDLRVYSVTYENEKLKIVEEKGDLAELLAQNLGVEKVHLIRCGGGNIVAAGREQWNDGSNTLTIAPGVVVVYDRNTVTNKILEEYGLRLIKIRGSELVRGRGGPRCMSMPFEREEV
effect on fimA expression of P. gingivalis (P. gingivalis): observed to affect
deiminase activity [8]: does not have any deiminase activity
